Test results as given in paper PMC7764243, “Alterins Produced by Oyster-Associated Pseudoalteromonas Are Antibacterial Cyclolipopeptides with LPS-Binding Activity” (Marine Drugs, 2020).
In brackets after ≈: the same amount, converted by molar mass. *1 amine or outer side, *2 acyl side, *3 side chain or, on linkers, in order; H or OH if unused. Where a SMILES comes first, the peptide text is derived from it. Bridges are numbered along the chain shown (N, C = ends). [ ]: non-standard residue; d: D form. The star is where a group is joined. ξ: configuration not given here. Dab(3ξ-OH) = O=C([C@@H](N[*:1])C(O)CN[*:3])[*:2]; Decanoyl(3ξ-OH) = CCCCCCCC(O)CC(=O)*; X1 = C/C=C(/N[*:1])C(=O)[*:2]; Dab = NCC[C@H](N)C(=O)O

Experiments:
[1] = tested on: A. caviae CIP 7616; type: cell-based, Aeromonas caviae; settings: broth microdilution, 0.1 to 100 µM, 1.10^6 UFC/mL, 48 h, read by unaided eye
Protocol: (§1) Antibacterial activity was assayed against a panel of micro-organisms including human and aquaculture pathogenic bacterial species. MICs were performed and defined according to internationally recognized standards (CLSI [21]). Polymyxin B (PMB), an antibiotic CLP produced by Paenibacillus polymyxa, was used as positive control. The major produced alterins, i.e., alt_952, alt_954, alt_970 and alt_980 were assayed against the whole panel of target cells while the minor ones were only tested against a few bacterial strains (Table 2).
(§2) The bacterial strains Aeromonas caviae CIP 7616, Aeromonas hydrophila CIP 7614, Escherichia coli ML35, Escherichia coli SBS 363, Salmonella enterica CIP 8297 and Yersinia ruckeri ATCC 29473 were grown in Tryptic Soy Broth. The marine bacterial strains Vibrio crassostreaeJ2–9, Vibrio tasmaniensisLGP32, Vibrio tapetis CECT 4600 were grown in Marine Broth. All of them were cultivated at optimal temperature according to ATCC and CIP specifications. The strain Vibrio parahaemolyticus13-028A/3 was grown at 28 °C in Tryptic Soy Broth supplemented in NaCl (20 g.L^−1) according to [47]. The strains Pseudoalteromonas sp. hCg-6 and hCg-42 were cultured using a synthetic medium containing: 17.11 g sucrose, 30 g sea salts (Sigma-S9883), 7.6 g K2HPO4, 3 g KH2PO4 and 20 mL MEM 50X (Dulbecco) per liter. The cultures were grown at 18 °C for 72 h with shaking (100 rpm).
(§3) MICs were determined using broth microdilution method according to [21]. To resume, antibacterial compounds ranging from 0.1 to 100 µM were assayed against the target bacteria in mid-logarithmic phase culture (1.10^6 UFC.mL^−1) in adapted culture medium according to the strain. MICs were examined by unaided eye after a 48h-incubation time at the optimal temperature growth. The lipopeptide PMB (Sigma-P4932) was used as antibiotic control.

[2] = tested on: E. coli ML35; type: cell-based, Escherichia coli; settings: E. coli ML35 (long-chain LPS); broth microdilution, 0.1 to 100 µM, 1.10^6 UFC/mL, 48 h, read by unaided eye
Protocol: as §1, §2, §3

[3] = tested on: E. coli SBS363; type: cell-based, Escherichia coli; settings: E. coli SBS363 (short-chain LPS); broth microdilution, 0.1 to 100 µM, 1.10^6 UFC/mL, 48 h, read by unaided eye
Protocol: as §1, §2, §3

[4] = tested on: P. aeruginosa ATCC 27853; type: cell-based, Pseudomonas aeruginosa; settings: P. aeruginosa ATCC 27853; broth microdilution, 0.1 to 100 µM, 1.10^6 UFC/mL, 48 h, read by unaided eye
Protocol: as §1, §3

[5] = tested on: Pseudoalteromonas hCg-42; type: cell-based, Pseudoalteromonas sp.; settings: Pseudoalteromonas hCg-42 (producing strain); broth microdilution, 0.1 to 100 µM, 1.10^6 UFC/mL, 48 h, read by unaided eye
Protocol: as §1, §2, §3

[6] = tested on: Pseudoalteromonas hCg-6; type: cell-based, Pseudoalteromonas sp.; settings: Pseudoalteromonas hCg-6 (producing strain); broth microdilution, 0.1 to 100 µM, 1.10^6 UFC/mL, 48 h, read by unaided eye
Protocol: as §1, §2, §3

[7] = tested on: S. enterica CIP 8297; type: cell-based, Salmonella enterica; settings: broth microdilution, 0.1 to 100 µM, 1.10^6 UFC/mL, 48 h, read by unaided eye
Protocol: as §1, §2, §3

[8] = tested on: V. parahaemolyticus 13-028A/3; type: cell-based, Vibrio parahaemolyticus; settings: broth microdilution, 0.1 to 100 µM, 1.10^6 UFC/mL, 48 h, read by unaided eye
Protocol: as §1, §2, §3

[9] = tested on: V. tapetis CECT 4600T; type: cell-based, Vibrio tapetis; settings: V. tapetis CECT 4600T; broth microdilution, 0.1 to 100 µM, 1.10^6 UFC/mL, 48 h, read by unaided eye
Protocol: as §1, §2, §3

[10] = tested on: V. tasmaniensis LGP 32; type: cell-based, Vibrio tasmaniensis; settings: V. tasmaniensis LGP 32; broth microdilution, 0.1 to 100 µM, 1.10^6 UFC/mL, 48 h, read by unaided eye
Protocol: as §1, §2, §3

[11] = tested on: Y. ruckeri ATCC 29473; type: cell-based, Yersinia ruckeri; settings: Y. ruckeri ATCC 29473; broth microdilution, 0.1 to 100 µM, 1.10^6 UFC/mL, 48 h, read by unaided eye
Protocol: as §1, §2, §3

[12] = tested on: V. tasmaniensis LGP32; assay: Viability (cultivability, CFU count) in seawater; type: cell-based, Vibrio tasmaniensis; settings: 20 µM, 4 h incubation in sterile seawater, inoculum 1.10^6 UFC/mL, plated in duplicate
Protocol: As a first step, we have measured the antimicrobial activity of alt_952, alt_954, alt_970 and alt_980 against V. tasmaniensis LGP32 in seawater after a 4 hour-long incubation. […] The effects on membrane were also investigated under the same experimental conditions using live/dead bacterial viability kit for flow cytometry (Figure 6). A net cultivability loss of V. tasmaniensis (2-log reduction) was observed when incubated with alt_954 and alt_980 indicative of a bactericidal effect (Figure 7A). In these conditions, V. tasmaniensis was much less affected by alt_970 (1-log reduction) and not by alt_952 (Figure 7A).
[…] After a 4 h-long incubation, viable bacteria were counted. Diluted samples (50 µL) in sterile seawater were spread in duplicate on appropriate medium. Cultivable bacterial concentration (CFU mL^−1) was determined after overnight incubation at optimal growth temperature.

[13] = LPS binding, surface plasmon resonance (Biacore); parameters: species or system Escherichia coli; settings: CLPs immobilized (500–600 RU) on CM5 chip, titrated with LPS, 25 °C, 10 mM Hepes pH 7.4, 150 mM NaCl, 3 mM EDTA
Description: To gain insights into LPS-alterin interactions, we used an endotoxin detection assay, the QCL-1000^TM Endpoint chromogenic Limulus Amoebocyte Lysate (LAL) assay (Lonza). We compared alt_954, alt_970 and alt_980 for their ability to bind LPS from E. coli O111:B4. All alterins bound to LPS in a dose-dependent manner, as indicated by the reduction of biologically active LPS with increasing alterins concentrations (Figure 4A). […] To examine alterin LPS-binding properties in more detail, we performed a surface plasmon resonance (SPR) assay using the Biacore technology (GE Healthcare). The SPR binding measurements were performed using the alt_954 and alt_970. PMB was used as a positive control. The CLPs were immobilized to a CM5 sensor chip surface and titrated with LPS. […] The dose-dependent effect observed (Figure 4B) highlights the LPS-binding properties of the alterins. Both LPS-binding assays, i.e., LAL and SPR, are fully agreeing for alt_954. Moreover, the LPS-binding properties of alterins followed the same general pattern as that of antibacterial activity.
Surface plasmon resonance experiments were carried out at 25 °C using a BIACORE 3000 apparatus (GE Healthcare, Uppsala, Sweden). […] The binding level in RU was measured at the end of the binding after normalization to the same CLP coated level.

C/C=C1/NC(=O)[C@@H](NC(=O)CC(O)CCCCCCC)C(O)CNC(=O)[C@H](C(O)CN)NC(=O)[C@H](C(O)CN)NC(=O)[C@H](CCCNC(=N)N)NC(=O)[C@H](CC(C)C)NC(=O)[C@H](CCN)NC1=O (stereo partly shown) [alt_970] ({Decanoyl(3ξ-OH)}-[Dab(3ξ-OH)][X1][Dab]LR[Dab(3ξ-OH)][Dab(3ξ-OH)]; lactam 1-C)
MIC [1]: 17.6 µM (≈ 17.1 µg/mL)
MIC [2]: 35 µM (≈ 34 µg/mL)
MIC [3]: 0.1 µM (≈ 0.0971 µg/mL)
MIC [4]: 35.2 µM (≈ 34.2 µg/mL)
MIC [5]: >100 µM
MIC [6]: >100 µM
MIC [7]: 1.1 µM (≈ 1.07 µg/mL)
MIC [8]: 6.25 µM (≈ 6.07 µg/mL)
MIC [9]: >100 µM
MIC [10]: 8.8 µM (≈ 8.55 µg/mL)
MIC [11]: 1.1 µM (≈ 1.07 µg/mL)
cultivability loss of V. tasmaniensis (log reduction of CFU) [12]: 1 log
LPS binding response (SPR, RU) [13]: the response was halved
